According to patent publication US20100292345A1, “THERAPEUTIC USES OF CANNABIGEROL” (GW PHARMA LIMITED, priority 2007, published 2010):

Assays:
[1] = target: T1, human cannabinoid CB2 receptors (Homo sapiens, UniProt P34972); assay: Inhibition of forskolin-stimulated cyclic AMP production in hCB2-CHO cells; type: cell-based; parameters: Emax, inhibition of forskolin-stimulated cyclic AMP production: unit not given here
T1 construct: expressed in transfected cells; host or cells: CHO cells, stably transfected

[2] = target: T2, CB1 receptors in mouse brain tissue (Mus musculus, UniProt P47746); assay: [3H]CP55940 radioligand displacement assay, mouse whole brain membranes; type: binding
T2 construct: Whole mouse brain membranes were prepared as described by Thomas et al., 2004; from tissue; host or cells: whole mouse brain membranes
Description: (§1) Whole mouse brain membranes were prepared as described by Thomas et al., 2004. CHO cells were stably transfected with cDNA encoding human cannabinoid CB2 receptors and were maintained at 37° C. and 5% CO2 in Dulbecco's Modified Eagle's Medium nutrient mixture.
(§2) The assays were carried out with the established CB1 and CB2 cannabinoid receptor agonist CP55940. This was radiolabelled to form [^3H]CP55940.
(§3) Binding of the radiolabelled compound was initiated by the addition of either the brain membranes (33 μg protein per tube) or the transfected hCB2 cells (25 μg protein per tube).
(§4) All assays were performed at 37° C. for 60 min before termination by addition of ice-cold wash buffer (50 mM Tris buffer, 1 mg ml^−1 bovine serum albumin, pH 7.4) and vacuum filtration using a 24-well sampling manifold and GF/B filters that had been soaked in wash buffer at 4° C. for at least 24 h.
(§5) The test compounds were also tested to determine whether they were able to displace the agonist CP55940 from the binding site of the CB1 or CB2 receptor. The Ki-value that resulted from this investigation gives an insight into how strongly the test compound competes with the agonist for the binding site.

[3] = target: T1, human cannabinoid CB2 receptors; assay: [3H]CP55940 radioligand displacement assay, hCB2-CHO cell membranes; settings: membranes prepared from hCB2-CHO cells; 37° C., 60 min; read-out: Ki, displacement of [3H]CP55940 from specific binding sites
Description: as §1, §2, §3, §4, §5

[4] = test system: CB1 receptors in mouse brain tissue; assay: [35S]GTPγS binding assay, mouse brain membranes; type: biochemical; settings: conclusion from the example data
Description: as §1
The assays were carried out with GTPγS binding buffer (50 mM Tris-HCl; 50 mM Tris-Base; 5 mM MgCl2; 1 mM EDTA; 100 mM NaCl; 1 mM DTT; 0.1% BSA) in the presence of [^35S]GTPγS and GDP, in a final volume of 500 μl. Binding was initiated by the addition of [^35S]GTPγS to the tubes. The drugs were incubated in the assay for 60 min at 30° C. The reaction was terminated by a rapid vacuum filtration method using Tris buffer (50 mM Tris-HCl; 50 mM Tris-Base; 0.1% BSA), as described previously, and the radioactivity was quantified by liquid scintillation spectrometry.
The agonism of the CB1 or CB2 receptors by CP55940 results in a response in the cell. This response is the binding of [^35S]GTPγS to the cell membrane.
Changes in the response in the presence of the test compound can be measured in order to determine whether the compound is acting as an agonist, a neutral antagonist or an inverse agonist. An agonist will increase the response, a neutral antagonist will have no effect on the response and an inverse agonist will stop or reverse the response. […]

T1 sequence (P34972 whole entry): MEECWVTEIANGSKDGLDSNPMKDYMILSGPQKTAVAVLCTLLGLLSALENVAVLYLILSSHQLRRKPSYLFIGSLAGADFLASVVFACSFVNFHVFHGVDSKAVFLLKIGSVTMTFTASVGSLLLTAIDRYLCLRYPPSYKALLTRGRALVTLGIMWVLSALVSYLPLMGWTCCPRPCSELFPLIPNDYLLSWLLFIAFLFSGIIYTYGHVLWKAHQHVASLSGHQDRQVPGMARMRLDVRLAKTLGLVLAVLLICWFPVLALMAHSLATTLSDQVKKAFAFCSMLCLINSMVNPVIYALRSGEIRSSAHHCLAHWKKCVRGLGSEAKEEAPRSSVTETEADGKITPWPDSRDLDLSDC
T2 sequence (P47746 whole entry): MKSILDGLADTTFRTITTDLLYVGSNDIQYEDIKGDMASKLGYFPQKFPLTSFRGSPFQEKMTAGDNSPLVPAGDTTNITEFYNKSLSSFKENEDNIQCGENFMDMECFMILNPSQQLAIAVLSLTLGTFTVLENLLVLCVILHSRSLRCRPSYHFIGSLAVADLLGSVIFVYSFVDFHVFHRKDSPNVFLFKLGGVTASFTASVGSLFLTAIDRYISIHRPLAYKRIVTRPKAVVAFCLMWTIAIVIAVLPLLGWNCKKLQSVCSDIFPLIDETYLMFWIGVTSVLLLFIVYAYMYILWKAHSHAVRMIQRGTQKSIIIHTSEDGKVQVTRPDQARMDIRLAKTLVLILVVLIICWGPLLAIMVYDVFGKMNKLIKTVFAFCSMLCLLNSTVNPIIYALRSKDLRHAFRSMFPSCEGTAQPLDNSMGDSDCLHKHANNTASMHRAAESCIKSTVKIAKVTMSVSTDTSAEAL

For `CCCCCc1cc(O)c(C/C=C(\C)CCC=C(C)C)c(O)c1` [CBG, cannabigerol], the “functional character at CB2 receptor” value ([1]; conclusion from the example data) was “partial agonist”, the EC50 ([1]; hCB2-CHO cells, 5 μM forskolin) was 0.388 µM and the “Emax, inhibition of forskolin-stimulated cyclic AMP production” value ([1]; hCB2-CHO cells, 5 μM forskolin) was 28.3. The “efficacy relative to CP55940 in inhibiting forskolin-stimulated cyclic AMP production” value ([1]; hCB2-CHO cells, 5 μM forskolin, submicromolar concentrations) was “efficacy less than that of CP55940”, the Ki [2] was 0.439 µM and the Ki [3] was 0.337 µM. The “functional character at CB1 receptor” value [4] was “partial agonist”.
